# Counter-ions that a name gives are not always drawn.
# System: TNFα
# Assay: LPS Stimulated Whole Blood Measuring TNFα Levels Assay
# Type: cell-based
# Conditions: 24 h, LPS 200 ng/ml, immunoassay, read-out: pIC50, TNFα levels in LPS stimulated whole blood (converted)
# Method: LPS Stimulated Whole Blood Measuring TNFα Levels Assay
# (§1) Activation of monocytic cells by agonists of toll-like receptors such as bacterial lipopolysaccharide (LPS) results in production of key inflammatory mediators including TNFα. Such pathways are widely considered to be central to the pathophysiology of a range of auto-immune and inflammatory disorders.
# Compounds to be tested are diluted to give a range of appropriate concentrations and 1 ul of the dilution stocks is added to wells of a 96 plate. Following addition of whole blood (130 ul) the plates are incubated at 37 degrees (5% CO2) for 30 min before the addition of 10 ul of 2.8 ug/ml lipopolysaccharides (LPS), diluted in complete RPMI 1640 (final concentration=200 ng/ml), to give a total volume of 140 ul per well. After further incubation for 24 hours at 37 degrees, 140 ul of PBS are added to each well. The plates are sealed, shaken for 10 minutes and then centrifuged (2500 rpm×10 min). 100 ul of the supernatant are removed and TNFα levels assayed by immunoassay (typically by MesoScale Discovery technology) either immediately or following storage at −20 degrees. Dose response curves for each compound was generated from the data and an IC50 value was calculated.
row,IC50 [µM],SMILES
1,≤ 6.31,"CC(=O)N1c2ccc(-c3ncc(CN4CCCCC4)s3)cc2[C@@H](NC(=O)OC(C)C)C[C@H]1C (racemic) [Example 52, 1-methylethyl {(cis)-1-acetyl-2-methyl-6-[5-(1-piperidinylmethyl)-1,3-thiazol-2-yl]-1,2,3,4-tetrahydro-4-quinolinyl}carbamate hydrochloride]"
2,≤ 6.31,"CC(=O)N1c2ccc(-c3ccc(CN4CCCCC4)o3)cc2[C@@H](NC(=O)OC(C)C)C[C@H]1C (racemic) [Example 22, 1-methylethyl {(cis)-1-acetyl-2-methyl-6-[5-(1-piperidinylmethyl)-2-furanyl]-1,2,3,4-tetrahydro-4-quinolinyl}carbamate (formic acid salt)]"

# System: IL-6
# Assay: Measurement of LPS Induced IL-6 Secretion from Whole Blood
# Type: cell-based
# Conditions: 24 h, LPS 200 ng/ml, immunoassay, read-out: pIC50, LPS induced IL-6 secretion from whole blood (converted)
# Method: Measurement of LPS Induced IL-6 Secretion from Whole Blood
# as §1, with “IL-6.” for “TNFα.”
# Compounds to be tested are diluted to give a range of appropriate concentrations of which 1 ul of the diluted stocks is added to a 96 well plate. Following addition of whole blood (130 ul) the plates are incubated at 37 degrees (5% CO2) for 30 min before the addition of 10 ul of 2.8 ug/ml LPS, diluted in complete RPMI 1640 (final concentration=200 ng/ml), to give a total volume of 140 ul per well. After further incubation for 24 hours at 37 degrees, 140 ul of PBS are added to each well. The plates are sealed, shaken for 10 minutes and then centrifuged (2500 rpm×10 min). 100 ul of the supernatant are removed and IL-6 levels assayed by immunoassay (typically by MesoScale Discovery technology) either immediately or following storage at −20 degrees. Concentration response curves for each compound was generated from the data and an IC50 value was calculated.
row,SMILES,IC50 [µM]
1,"CC(=O)N1c2ccc(-c3nnc(C)s3)cc2[C@H](NC(=O)OC(C)C)C[C@@H]1C [Example 68, 1-Methylethyl[(2S,4R)-1-acetyl-2-methyl-6-(5-methyl-1,3,4-thiadiazol-2-yl)-1,2,3,4-tetrahydro-4-quinolinyl]carbamate]",≤ 31.6
2,"CC(=O)N1c2ccc(-c3ccc(CC(=O)O)cc3)cc2[C@H](NC(=O)OC(C)C)C[C@@H]1C [Example 67, {4-[(2S,4R)-1-Acetyl-2-methyl-4-({[(1-methylethyl)oxy]carbonyl}amino)-1,2,3,4-tetrahydro-6-quinolinyl]phenyl}acetic acid]",≤ 31.6
3,"CC(=O)N1c2ccc(-c3cn(CCN)nn3)cc2[C@H](NC(=O)OC(C)C)C[C@@H]1C [Example 79, 1-Methylethyl {(2S,4R)-1-acetyl-6-[1-(2-aminoethyl)-1H-1,2,3-triazol-4-yl]-2-methyl-1,2,3,4-tetrahydro-4-quinolinyl}carbamate hydrochloride]",≤ 31.6
4,"CC(=O)N1c2ccc(-c3cn(CC(=O)O)nn3)cc2[C@H](NC(=O)OC(C)C)C[C@@H]1C [Example 76, {4-[(2S,4R)-1-Acetyl-2-methyl-4-({[(1-methylethyl)oxy]carbonyl}amino)-1,2,3,4-tetrahydro-6-quinolinyl]-1H-1,2,3-triazol-1-yl}acetic acid]",≤ 31.6
5,"CC(=O)N1c2ccc(-c3cncn3C)cc2[C@H](NC(=O)OC(C)C)C[C@@H]1C [Example 82, 1-Methylethyl[(2S,4R)-1-acetyl-2-methyl-6-(1-methyl-1H-imidazol-5-yl)-1,2,3,4-tetrahydro-4-quinolinyl]carbamate]",≤ 31.6
6,"CNCCc1noc(-c2ccc3c(c2)[C@H](NC(=O)OC(C)C)C[C@H](C)N3C(C)=O)n1 [Example 71, 1-Methylethyl((2S,4R)-1-acetyl-2-methyl-6-{3-[2-(methylamino)ethyl]-1,2,4-oxadiazol-5-yl}-1,2,3,4-tetrahydro-4-quinolinyl)carbamate hydrochloride]",≤ 31.6
7,"CC(=O)N1c2ccc(-c3noc(CCN(C)C)n3)cc2[C@H](NC(=O)OC(C)C)C[C@@H]1C [Example 78, 1-Methylethyl((2S,4R)-1-acetyl-6-{5-[2-(dimethylamino)ethyl]-1,2,4-oxadiazol-3-yl}-2-methyl-1,2,3,4-tetrahydro-4-quinolinyl)carbamate hydrochloride]",≤ 31.6
8,"CC(=O)N1c2ccc(-c3cn(CCCN)nn3)cc2[C@H](NC(=O)OC(C)C)C[C@@H]1C [Example 74, 1-Methylethyl {(2S,4R)-1-acetyl-6-[1-(3-aminopropyl)-1H-1,2,3-triazol-4-yl]-2-methyl-1,2,3,4-tetrahydro-4-quinolinyl}carbamate hydrochloride]",≤ 31.6
9,"CC(=O)N1c2ccc(-c3cn(CCCN(C)C)nn3)cc2[C@H](NC(=O)OC(C)C)C[C@@H]1C [Example 81, 1-Methylethyl((2S,4R)-1-acetyl-6-{1-[3-(dimethylamino)propyl]-1H-1,2,3-triazol-4-yl}-2-methyl-1,2,3,4-tetrahydro-4-quinolinyl)carbamate formate salt]",≤ 31.6
10,"CC(=O)N1c2ccc(-c3nc(CN)no3)cc2[C@H](NC(=O)OC(C)C)C[C@@H]1C [Example 69, 1-Methylethyl {(2S,4R)-1-acetyl-6-[3-(aminomethyl)-1,2,4-oxadiazol-5-yl]-2-methyl-1,2,3,4-tetrahydro-4-quinolinyl}carbamate hydrochloride]",≤ 31.6

# Results, then the compound that gave them:
row,IC50 [µM],SMILES
1,≤ 31.6,"CC(=O)N1c2ccc(-c3cn(C)cn3)cc2[C@H](NC(=O)OC(C)C)CC1C (stereo partly drawn) [Example 83, 1-Methylethyl[(2S,4R)-1-acetyl-2-methyl-6-(1-methyl-1H-imidazol-4-yl)-1,2,3,4-tetrahydro-4-quinolinyl]carbamate hydrochloride]"
2,≤ 31.6,"CC(=O)N1c2ccc(-n3cnc(C)c3)cc2[C@H](NC(=O)OC(C)(C)C)C[C@@H]1C (relative stereo) [Example 123, 1,1-Dimethylethyl[(cis)-1-acetyl-2-methyl-6-(4-methyl-1H-imidazol-1-yl)-1,2,3,4-tetrahydro-4-quinolinyl]carbamate]"
3,≤ 31.6,"CC(=O)N1c2ccc(-n3cnc(CNCCO)c3)cc2[C@@H](NC(=O)OC(C)C)C[C@H]1C (racemic) [Example 92, 1-Methylethyl[(cis)-1-acetyl-6-(4-{[(2-hydroxyethyl)amino]methyl}-1H-imidazol-1-yl)-2-methyl-1,2,3,4-tetrahydro-4-quinolinyl]carbamate]"
4,≤ 31.6,"CC(=O)N1c2ccc(-n3ccnc3C)cc2[C@H](NC(=O)OC(C)C)C[C@@H]1C [Example 88, 1-Methylethyl[(2S,4R)-1-acetyl-2-methyl-6-(2-methyl-1H-imidazol-1-yl)-1,2,3,4-tetrahydro-4-quinolinyl]carbamate]"
5,≤ 31.6,"CC(=O)N1c2ccc(-c3ccc(CCN)cc3)cc2[C@H](NC(=O)OC(C)C)C[C@@H]1C [Example 96, 1-Methylethyl {(2S,4R)-1-acetyl-6-[4-(2-aminoethyl)phenyl]-2-methyl-1,2,3,4-tetrahydro-4-quinolinyl}carbamate hydrochloride]"
6,≤ 31.6,"COCn1cc(-c2ccc3c(c2)[C@H](NC(=O)OC(C)C)C[C@H](C)N3C(C)=O)cn1 [Example 106, 1-Methylethyl((2S,4R)-1-acetyl-2-methyl-6-{1-[(methyloxy)methyl]-1H-pyrazol-4-yl}-1,2,3,4-tetrahydro-4-quinolinyl)carbamate]"
7,≤ 31.6,"CC(=O)N1c2ccc(-n3cnc(C)c3)cc2[C@H](NC(=O)OC(C)C)C[C@@H]1C (single isomer, unassigned) [Example 103]"
8,≤ 31.6,"CC(=O)N1c2ccc(-c3ccc(N)nc3)cc2[C@H](NC(=O)OC(C)C)C[C@@H]1C [Example 110, 1-methylethyl[(2S,4R)-1-acetyl-6-(6-amino-3-pyridinyl)-2-methyl-1,2,3,4-tetrahydro-4-quinolinyl]carbamate]"
9,≤ 31.6,"CC(=O)N1c2ccc(-c3ccc(CCO)cc3)cc2[C@H](NC(=O)OC(C)C)C[C@@H]1C [Example 95, 1-Methylethyl {(2S,4R)-1-acetyl-6-[4-(2-hydroxyethyl)phenyl]-2-methyl-1,2,3,4-tetrahydro-4-quinolinyl}carbamate]"
10,≤ 31.6,"CC(=O)N1c2ccc(-n3cnc(CO)c3)cc2[C@@H](NC(=O)OC(C)C)C[C@H]1C (racemic) [Example 89, 1-Methylethyl {(cis)-1-acetyl-6-[4-(hydroxymethyl)-1H-imidazol-1-yl]-2-methyl-1,2,3,4-tetrahydro-4-quinolinyl}carbamate]"
11,≤ 31.6,"CC(=O)N1c2ccc(-c3ncc[nH]3)cc2[C@H](NC(=O)OC(C)C)C[C@@H]1C [Example 86, 1-Methylethyl[(2S,4R)-1-acetyl-6-(1H-imidazol-2-yl)-2-methyl-1,2,3,4-tetrahydro-4-quinolinyl]carbamate]"
12,≤ 31.6,"CC(=O)N1c2ccc(-n3cnc(C(=O)O)c3)cc2[C@@H](NC(=O)OC(C)C)C[C@H]1C (racemic) [Example 87, 1-[(Cis)-1-acetyl-2-methyl-4-({[(1-methylethyl)oxy]carbonyl}amino)-1,2,3,4-tetrahydro-6-quinolinyl]-1H-imidazole-4-carboxylic acid]"
13,≤ 31.6,"CC(=O)N1c2ccc(-c3ccccc3C)cc2[C@H](NC(=O)OC(C)C)C[C@@H]1C [Example 93, 1-Methylethyl[(2S,4R)-1-acetyl-2-methyl-6-(2-methylphenyl)-1,2,3,4-tetrahydro-4-quinolinyl]carbamate]"
14,≤ 31.6,"CC(=O)N1c2ccc(-c3cn(CC(=O)O)cn3)cc2[C@@H](NC(=O)OC(C)C)C[C@H]1C (racemic) [Example 90, {4-[(Cis)-1-acetyl-2-methyl-4-({[(1-methylethyl)oxy]carbonyl}amino)-1,2,3,4-tetrahydro-6-quinolinyl]-1H-imidazol-1-yl}acetic acid trifluoroacetate]"
